Measurements from patent publication US20140294753A1, “NOVEL USE OF GANODERMIC ACIDS FOR TREATING CANCER” (DOUBLE CRANE BIOTECHNOLOGY CO. LTD, priority 2013, published 2014).
pIC50: −log10 of the molar value.

Tests used:
[1] = tested on: human non-small cell lung cancer cell line PC-9; assay: Cell activity analysis (acid phosphatase, ACP); conditions: PC-9, 72 h, read-out: IC50 (50% cell activity inhibited)
Experimental: (§9) Each cell lines were cultured and maintained in Dulbecco's modified Eagle media (DMEM) supplemented with 1% fetal bovine serum (FBS), 100 IU/ml penicillin, 100 ng/ml streptomycin, 2 mM glutamine, non-essential amino acids and sodium pyruvate in 5% CO2 at 37° C. Cells were grown and maintained in Petri dishes (each was 10 cm in diameter) until reached 80% confluence, then were subject to cell passages. […] Collected the suspended cells, added 2 mL fresh culture media to neutralize any remaining activity of trypsin. Adjusted the cell density by adding appropriate amounts of culture medium to the cell suspension, which was then used to seed the culture plates. The plates were then returned to the incubator and cultured in accordance with the steps described above.
(§10) In operation, cultured cells in each well were washed with PBS (200 μl), then a reacting solution (100 μl) (10 mM p-NPP, 0.1 M sodium acetate, 0.1% Triton X-100, pH 5.5) was added and allowed to react with the cells for 30-40 min at 37° C. The reaction was subsequently stopped with a basic solution (10 μl, 0.1N NaOH). […]

PC-9 cells = assay: Wound healing assay (cell migration); assay type: cell-based, human; conditions: 5 μM GMAS; lung cancer cells (PC-9, FIG. 4)
Experimental: (§1) Wound healing assay is one of the earliest developed methods to study directional cell migration in vitro, by mimicking cell migration during wound healing in vivo. The basic steps involve creating a “wound” in a cell monolayer, capturing the images at the beginning and at regular intervals during cell migration to close the wound, and comparing the images to quantify the migration rate of the cells.
Briefly, the assay was carried out using IBIDI culture-inserts and 24-well plates (IBIDI GmbH, Martinsried, Germany). The culture-inserts were respectively placed into each well. Aliquots of […] containing 3×10^4 cells (PC-9, MDA-MB-231 or CL1-5 cells) were added into the two reservoirs of the same insert and incubated for 8 hrs, then the inserts were gently removed from each wells, then culture medium (500 μL, […]) or solvent vehicle (i.e., the control) was added to each well. The cells in the culture wells were photographed respectively at 0, 12, 24, 48 and 72 hrs using an inverted microscope. Finally, the migration area or the “wound” area was quantified by Metamorph software (Molecular Devices).

[2] = tested on: human lung adenocarcinoma cell line A549; assay: Cell activity analysis (acid phosphatase, ACP); assay type: cell-based; conditions: Lung Cancer A549, treated at least 48 hrs, read-out: IC50 (50% cell activity inhibited)
Experimental: (§2) Cell lines used in the present disclosure include human lung adenocarcinoma cell line A549, human hepatocarcinoma cell line Huh7, human colon carcinoma cell line HCT116, human non-small cell lung cancer cell line PC-9, gefitinib-resistant human non-small cell lung cancer cell line PC-9 (PC9-IR), and human breast carcinoma cell line MDA-MB-231.
(§3) Each cell lines were cultured and maintained in Dulbecco's modified Eagle media (DMEM) supplemented with 1% fetal bovine serum (FBS), 100 IU/ml penicillin, 100 ng/ml streptomycin, 2 mM glutamine, non-essential amino acids and sodium pyruvate in 5% CO2 at 37° C. Cells were grown and maintained in Petri dishes (each was 10 cm in diameter) until reached 80% confluence, then were subject to cell passages. Briefly, cells were first washed with phosphate buffer solution (PBS, 3 ml) once, then treated with 0.05% Trypsin/0.025% EDTA solution (1 mL) for 5 min so that the attached cells become suspended. Collected the suspended cells, added 2 mL fresh culture media to neutralize any remaining activity of trypsin. Adjusted the cell density by adding appropriate amounts of culture medium to the cell suspension, which was then used to seed the culture plates. The plates were then returned to the incubator and cultured in accordance with the steps described above.
(§4) Cells were seeded in 96-well plates with a density of 3,000 cells/well and cultured in accordance with the procedures described above.
(§5) Acid Phosphatase analysis
(§6) Cell activity may be derived from the acid phosphatase (ACP) activity of a cell.
(§7) In operation, cultured cells in each well were washed with PBS (200 μl), then a reacting solution (100 μl) (10 mM p-NPP, 0.1 M sodium acetate, 0.1% Triton X-100, pH 5.5) was added and allowed to react with the cells for 30-40 min at 37° C. The reaction was subsequently stopped with a basic solution (10 μl, 0.1N NaOH). Adsorption at the wavelength of 405 nm was then measured, and the concentration that inhibited 50% cell activity (IC50) was derived from the absorbance measurement.
(§8) The effects of GMAS on various cancer cell lines, including colon cancer, hepatoma, breast cancer, and lung cancer, were respectively assessed by cell activity analysis using ACP activity as an indicator. Results are depicted in FIG. 1.

[3] = tested on: human breast carcinoma cell line MDA-MB-231; assay: Cell activity analysis (acid phosphatase, ACP); assay type: cell-based; conditions: Breast Cancer MDA-MB-231, treated at least 48 hrs, read-out: IC50 (50% cell activity inhibited)
Experimental: as §2, §3, §4, §5, §6, §7, §8

[4] = tested on: human colon carcinoma cell line HCT116; assay: Cell activity analysis (acid phosphatase, ACP); assay type: cell-based; conditions: Colon Cancer HCT-116, treated at least 48 hrs, read-out: IC50 (50% cell activity inhibited)
Experimental: as §2, §3, §4, §5, §6, §7, §8

[5] = tested on: human hepatocarcinoma cell line Huh7; assay: Cell activity analysis (acid phosphatase, ACP); assay type: cell-based; conditions: Hepatoma Huh-7, treated at least 48 hrs, read-out: IC50 (50% cell activity inhibited)
Experimental: as §2, §3, §4, §5, §6, §7, §8

[6] = tested on: gefitinib-resistant human non-small cell lung cancer cell line PC-9 (PC9-IR); assay: Cell activity analysis (acid phosphatase, ACP)
Experimental: as §9, §10

HCT-116 cells = assay: Wound healing assay (cell migration); assay type: cell-based, human; conditions: up to 72 hrs
Experimental: as §1
Briefly, the assay was carried out using IBIDI culture-inserts and 24-well plates (IBIDI GmbH, Martinsried, Germany). The culture-inserts were respectively placed into each well. Aliquots of […] containing 3×10^4 cells (PC-9, MDA-MB-231 or CL1-5 cells) were added into the two reservoirs of the same insert and incubated for 8 hrs, then the inserts were gently removed from each wells, then culture medium (500 μL, 10% FBS) containing GMAS (25 or 50 μM) or solvent vehicle (i.e., the control) was added to each well. The cells in the culture wells were photographed respectively at 0, 12, 24, 48 and 72 hrs using an inverted microscope. Finally, the migration area or the “wound” area was quantified by Metamorph software (Molecular Devices).
The effect of GMAS on the migration capability of colon cancer cells was assessed using the wound healing assay as described in the section of “Materials and Methods”. Results are illustrated in FIG. 3.

Question: What does the source list for `CC(=O)O[C@H]1CC[C@]2(C)C3=CC[C@]4(C)[C@@H]([C@H](C)CC/C=C(\C)C(=O)O)C[C@H](OC(C)=O)[C@@]4(C)C3=CC[C@H]2C1(C)C` [GMAS, ganodermic acid S]?
Answer: pIC50 [1]: 4.25; reduction of the migrated area as compared with control (PC-9 cells): 50%; pIC50 [2]: 5.10; pIC50 [3]: 4.69; pIC50 [4]: 5.10; pIC50 [5]: 4.72; pIC50 ([6]; Homo sapiens, 72 h, read-out: IC50 (50% cell activity inhibited)): 4.20; Resistant Ratio (PC9-IR/PC9) ([6]; IC50 of PC9-IR divided by IC50 of PC-9): 1.1; wound closing phenomenon (migration of colon cancer cells) (HCT-116 cells; 25 μM GMAS): slightly inhibited; wound closing phenomenon (migration of colon cancer cells) (HCT-116 cells; 50 μM GMAS): significantly suppressed
